Source: paper PMC12251549, “Engineering a Radiohybrid PSMA Ligand with an Albumin-Binding Moiety and Pharmacokinetic Modulation via an Albumin-Binding Competitor for Radiotheranostics” (Molecules, 2025)

Columns and labels:
[1] = tested on: PSMA-expressing LNCaP cells; test: Cellular uptake and internalization in LNCaP cells, blocking with 2-PMPA; format: cell-based; settings: 2-PMPA 100 µM
Experimental: Cellular uptake experiments were performed according to a previous report with slight modifications. LNCaP cells expressing PSMA were cultured in RPMI 1640 medium containing 10% fetal bovine serum (FBS) and 1% penicillin–streptomycin on 6-well culture plates (containing 5 × 10^5 cells/well) for 24 h in a humidified atmosphere (5% CO2) incubator at 37 °C. After removing the medium and washing with phosphate-buffered saline (PBS) (−) once, a mixed solution of [^125I]5 and [^211At]6, [^125I]5 and [^67Ga]Ga-PSMA-617, and [^125I]5 and [^67Ga]5 in 1.0 mL of medium without FBS was added (3.7 kBq/each tracer/well). The final concentrations of the radioligands for [^125I]5, [^211At]6, and [^67Ga]5 were 45.5 pM, 0.2 pM, and 2.5 pM, respectively. These solutions containing radioligands were diluted in saline containing 0.05% (w/v) bovine serum albumin (BSA) to prevent adsorption to tubes or plates and further diluted with medium to 0.00125% as the final BSA concentration. After incubation for 10, 60, and 120 min, the medium from each well was removed, and the cells were washed twice with ice-cold PBS (−); the surface of the cells was washed twice with ice-cold 0.2 M glycine buffer (pH 3.0). The cells were lysed using a 1 M NaOH aqueous solution. The radioactivity of ^67Ga,^125I and ^211At in the 1 M NaOH aqueous solution was determined and defined as the internalized radioligand fraction using an auto well gamma counter (ARC-8001, Hitachi, Ltd., Tokyo, Japan) according to a previous paper. The radioactivity was determined with an auto well gamma counter and corrected for background radiation and physical decay during counting. A window from 16 to 69 keV was used for counting ^125I, and a window from 70 to 120 keV was used for counting ^211At. Correlation factors to eliminate any crossover of ^125I activity in the ^211At counts were determined by measuring the ^125I standard in each window. More than one week after the experiments, the radioactivity counts of ^125I were measured after the decay of ^211At. The protein amount in cells was quantified using a BCA Protein Assay Kit (Nacalai Tesque, Kyoto, Japan) according to the manufacturer’s protocol. All data were expressed as percent dose per milligram protein (%dose/mg protein). In blocking experiments, a selective inhibitor of the PSMA, (2S)-2-(phosphonomethyl)pentanedioic acid (2-PMPA) (final concentration 100 µM), was added to each well with tracers. After incubation for 10, 60, and 120 min, radioactivity and protein concentration were determined in the same manner as the experiment without the blocking agent.

[2] = Biodistribution after intravenous co-injection of [125I]5 and [211At]6 (Table S2); format: in vivo, normal mice (ddY); settings: normal mice
Experimental: [^67Ga]Ga-PSMA-617 (37 kBq) and [^125I]5 (37 kBq) or [^125I]5 (37 kBq) and [^211At]6 (37 kBq) were intravenously co-administered into three or four normal mice at each timepoint (6 weeks male ddY mice, 28–30 g, Japan SLC, Inc., Hamamatsu, Japan). Mice were sacrificed at 10 min, 1 h, 4 h, and 24 h ([^67Ga]Ga-PSMA-617 and [^125I]5) or at 10 min, 1 h, 4 h, 12 h, and 24 h ([^125I]5 and [^211At]6) postinjection of the radiolabeled compounds. Tissues of interest were removed and weighed, and the radioactivity of ^67Ga and ^125I and ^125I and ^211At were determined with an auto well gamma counter (ARC-8001) and corrected for background radiation as described in the Cellular Uptake Experiments Section. To determine the amount and routes of the radioactivity excreted from the body for 24 h after the injection of radiolabeled compounds, mice were housed in metabolic cages (METABOLICA, SUGIYAMA-GEN Co., Ltd., Tokyo, Japan). Data are shown as the percentage of injected dose per gram of tissues (%ID/g) or %ID.

[3] = In vitro stability test in 0.1 M phosphate buffer; format: physicochemical; settings: 0.1 M PB solution containing 10% ethanol, 37 °C, 24 h, mean ± SD for three samples
Experimental: samples were analyzed by RP-HPLC using a Cosmosil 5C18-AR-II (4.6 × 150 mm) at a flow rate of 1 mL/min with a gradient mobile phase of 60% methanol in water with 0.1% trifluoroacetic acid (TFA) to 80% methanol in water with 0.1% TFA for 20 min.
In vitro stability test in 0.1 M PB solution containing 10% ethanol was performed. The […]
and 97.1 ± 0.9% (mean ± SD for three samples) after incubating at 37 °C for 24 h, […]

[4] = Biodistribution with post-administration of albumin-binding competitor IPBA; format: in vivo, normal mice (ddY); settings: normal mice, IPBA at 1 h postinjection, 10 molar equivalent of blood albumin; except in the kidney
Experimental: To evaluate the effects of an albumin-binding competitor (sodium salt of IPBA) in normal mice, [^125I]5 and [^211At]6 were intravenously co-administered. At 1 h postinjection of the radiolabeled compounds, IPBA (3.4 mg, 11 µmol) dissolved in saline at a 10 molar equivalent of blood albumin was administered. Mice were sacrificed at 65 min, 70 min, 2 h, 4 h, 12 h, and 24 h postinjection of [^125I]5 and [^211At]6. Tissues of interest were treated, and the radioactivity was measured in the same manner as above. Data are also shown as %ID/g or %ID.

In vivo dehalogenation (radioactivity in stomach and neck) [2]: minimal deiodination or deastatination
Biodistribution of radioactivity: Blood ([2]; i.v., 10 min after injection): 26.93 (0.47) % injected dose per gram
Biodistribution of radioactivity: Bone ([2]; i.v., 10 min after injection): 2.74 (0.53) % injected dose per gram
Biodistribution of radioactivity: Brain ([2]; i.v., 10 min after injection): 0.53 (0.06) % injected dose per gram
Biodistribution of radioactivity: Heart ([2]; i.v., 10 min after injection): 4.66 (0.37) % injected dose per gram
Biodistribution of radioactivity: Kidney ([2]; i.v., 10 min after injection): 5.19 (0.64) % injected dose per gram
Biodistribution of radioactivity: L. Intestine ([2]; i.v., 10 min after injection): 0.78 (0.05) % injected dose per gram
Biodistribution of radioactivity: Liver ([2]; i.v., 10 min after injection): 3.61 (0.05) % injected dose per gram
Biodistribution of radioactivity: Lung ([2]; i.v., 10 min after injection): 15.25 (2.29) % injected dose per gram
Biodistribution of radioactivity: Muscle ([2]; i.v., 10 min after injection): 0.99 (0.14) % injected dose per gram
Biodistribution of radioactivity: Neck ([2]; i.v., 10 min after injection): 0.04 (0.01) % injected dose
Biodistribution of radioactivity: Pancreas ([2]; i.v., 10 min after injection): 2.59 (0.24) % injected dose per gram
Biodistribution of radioactivity: S. Intestine ([2]; i.v., 10 min after injection): 1.42 (0.15) % injected dose per gram
Biodistribution of radioactivity: Spleen ([2]; i.v., 10 min after injection): 2.56 (0.44) % injected dose per gram
Biodistribution of radioactivity: Stomach ([2]; i.v., 10 min after injection): 0.85 (0.07) % injected dose
Biodistribution of radioactivity: Blood ([2]; i.v., 1 h after injection): 17.94 (1.58) % injected dose per gram
Biodistribution of radioactivity: Bone ([2]; i.v., 1 h after injection): 1.92 (0.21) % injected dose per gram
Biodistribution of radioactivity: Brain ([2]; i.v., 1 h after injection): 0.38 (0.12) % injected dose per gram
Biodistribution of radioactivity: Heart ([2]; i.v., 1 h after injection): 4.88 (0.26) % injected dose per gram
Biodistribution of radioactivity: Kidney ([2]; i.v., 1 h after injection): 4.36 (0.53) % injected dose per gram
Biodistribution of radioactivity: L. Intestine ([2]; i.v., 1 h after injection): 0.93 (0.15) % injected dose per gram
Biodistribution of radioactivity: Liver ([2]; i.v., 1 h after injection): 2.54 (0.38) % injected dose per gram
Biodistribution of radioactivity: Lung ([2]; i.v., 1 h after injection): 10.21 (2.55) % injected dose per gram
Biodistribution of radioactivity: Muscle ([2]; i.v., 1 h after injection): 1.25 (0.10) % injected dose per gram
Biodistribution of radioactivity: Neck ([2]; i.v., 1 h after injection): 0.04 (0.01) % injected dose
Biodistribution of radioactivity: Pancreas ([2]; i.v., 1 h after injection): 2.07 (0.45) % injected dose per gram
Biodistribution of radioactivity: S. Intestine ([2]; i.v., 1 h after injection): 1.59 (0.31) % injected dose per gram
Biodistribution of radioactivity: Spleen ([2]; i.v., 1 h after injection): 1.77 (0.11) % injected dose per gram
Biodistribution of radioactivity: Stomach ([2]; i.v., 1 h after injection): 0.84 (0.27) % injected dose
Biodistribution of radioactivity: Blood ([2]; i.v., 4 h after injection): 13.40 (1.08) % injected dose per gram
Biodistribution of radioactivity: Bone ([2]; i.v., 4 h after injection): 1.59 (0.09) % injected dose per gram
Biodistribution of radioactivity: Brain ([2]; i.v., 4 h after injection): 0.32 (0.06) % injected dose per gram
Biodistribution of radioactivity: Heart ([2]; i.v., 4 h after injection): 4.31 (0.39) % injected dose per gram
Biodistribution of radioactivity: Kidney ([2]; i.v., 4 h after injection): 4.44 (0.25) % injected dose per gram
Biodistribution of radioactivity: L. Intestine ([2]; i.v., 4 h after injection): 1.15 (0.35) % injected dose per gram
Biodistribution of radioactivity: Liver ([2]; i.v., 4 h after injection): 1.55 (0.24) % injected dose per gram
Biodistribution of radioactivity: Lung ([2]; i.v., 4 h after injection): 7.81 (1.92) % injected dose per gram
Biodistribution of radioactivity: Muscle ([2]; i.v., 4 h after injection): 1.27 (0.08) % injected dose per gram
Biodistribution of radioactivity: Neck ([2]; i.v., 4 h after injection): 0.04 (0.01) % injected dose
Biodistribution of radioactivity: Pancreas ([2]; i.v., 4 h after injection): 1.76 (0.35) % injected dose per gram
Biodistribution of radioactivity: S. Intestine ([2]; i.v., 4 h after injection): 1.30 (0.19) % injected dose per gram
Biodistribution of radioactivity: Spleen ([2]; i.v., 4 h after injection): 1.60 (0.25) % injected dose per gram
Biodistribution of radioactivity: Stomach ([2]; i.v., 4 h after injection): 0.83 (0.18) % injected dose
Biodistribution of radioactivity: Blood ([2]; i.v., 12 h after injection): 12.23 (1.51) % injected dose per gram
Biodistribution of radioactivity: Bone ([2]; i.v., 12 h after injection): 1.91 (0.32) % injected dose per gram
Biodistribution of radioactivity: Brain ([2]; i.v., 12 h after injection): 0.42 (0.07) % injected dose per gram
Biodistribution of radioactivity: Heart ([2]; i.v., 12 h after injection): 3.83 (0.57) % injected dose per gram
Biodistribution of radioactivity: Kidney ([2]; i.v., 12 h after injection): 5.31 (0.31) % injected dose per gram
Biodistribution of radioactivity: L. Intestine ([2]; i.v., 12 h after injection): 0.79 (0.16) % injected dose per gram
Biodistribution of radioactivity: Liver ([2]; i.v., 12 h after injection): 1.58 (0.12) % injected dose per gram
Biodistribution of radioactivity: Lung ([2]; i.v., 12 h after injection): 7.79 (0.46) % injected dose per gram
Biodistribution of radioactivity: Muscle ([2]; i.v., 12 h after injection): 1.37 (0.10) % injected dose per gram
Biodistribution of radioactivity: Neck ([2]; i.v., 12 h after injection): 0.18 (0.06) % injected dose
Biodistribution of radioactivity: Pancreas ([2]; i.v., 12 h after injection): 1.44 (0.82) % injected dose per gram
Biodistribution of radioactivity: S. Intestine ([2]; i.v., 12 h after injection): 1.06 (0.11) % injected dose per gram
Biodistribution of radioactivity: Spleen ([2]; i.v., 12 h after injection): 1.71 (0.33) % injected dose per gram
Biodistribution of radioactivity: Stomach ([2]; i.v., 12 h after injection): 1.04 (0.11) % injected dose
Biodistribution of radioactivity: Blood ([2]; i.v., 24 h after injection): 10.45 (0.19) % injected dose per gram
Biodistribution of radioactivity: Bone ([2]; i.v., 24 h after injection): 1.56 (0.33) % injected dose per gram
Biodistribution of radioactivity: Brain ([2]; i.v., 24 h after injection): 0.43 (0.14) % injected dose per gram
Biodistribution of radioactivity: Heart ([2]; i.v., 24 h after injection): 4.06 (1.41) % injected dose per gram
Biodistribution of radioactivity: Kidney ([2]; i.v., 24 h after injection): 3.50 (0.24) % injected dose per gram
Biodistribution of radioactivity: L. Intestine ([2]; i.v., 24 h after injection): 0.62 (0.15) % injected dose per gram
Biodistribution of radioactivity: Liver ([2]; i.v., 24 h after injection): 1.43 (0.07) % injected dose per gram
Biodistribution of radioactivity: Lung ([2]; i.v., 24 h after injection): 5.77 (0.84) % injected dose per gram
Biodistribution of radioactivity: Muscle ([2]; i.v., 24 h after injection): 1.28 (0.09) % injected dose per gram
Biodistribution of radioactivity: Neck ([2]; i.v., 24 h after injection): 0.14 (0.06) % injected dose
Biodistribution of radioactivity: Pancreas ([2]; i.v., 24 h after injection): 1.61 (0.22) % injected dose per gram
Biodistribution of radioactivity: S. Intestine ([2]; i.v., 24 h after injection): 0.81 (0.05) % injected dose per gram
Biodistribution of radioactivity: Spleen ([2]; i.v., 24 h after injection): 1.33 (0.43) % injected dose per gram
Biodistribution of radioactivity: Stomach ([2]; i.v., 24 h after injection): 1.31 (0.10) % injected dose
Biodistribution of radioactivity: Feces ([2]; i.v., excreted for 24 h after injection (column not printed safely), Table S2): 2.00 (0.33) % injected dose
Blood retention ([2]; profile resembled that of [125I]5): prolonged blood retention
Radiochemical purity after incubation (in vitro stability) [3]: 97.1 ± 0.9%
Effect of IPBA administration on radioactivity levels in tissues [4]: significantly decreased
SMILES: O=C([O-])CN1CCN(CC(=O)[O-])CCN(CC(=O)NC(CCCCNC(=O)CCCc2ccc([211At])cc2)C(=O)NCC2CCC(C(=O)NC(Cc3ccc4ccccc4c3)C(=O)NCCCCC(NC(=O)NC(CCC(=O)O)C(=O)O)C(=O)O)CC2)CCN(CC(=O)[O-])CC1.[Ga+3] (stereo not shown) [[^211At]6]
Effect of excess 2-PMPA on cellular uptake [1]: significantly reduced
